Test results: article PMC3702004, “Comparison of Intake and Systemic Relative Effect Potencies of Dioxin-like Compounds in Female Mice after a Single Oral Dose” (Environmental Health Perspectives, 2013)

Legend:
Assay type in all cases: in vivo, female C57BL/6 mice
[1] = test system: hepatic CYP1A1 activity (ethoxyresorufin-O-deethylase, EROD); test: Hepatic EROD activity in hepatic microsomal fractions after single oral dose; settings: for BMR20TCDD Liver EROD activity: 3 days after single oral dose; for REP Liver EROD activity: relative to TCDD
Experimental: (§1) Animals. Eight-week-old female C57BL/6 mice (Harlan laboratories, Venray, the Netherlands) were randomly assigned to treatment groups (six animals per group) and allowed to acclimate for 1.5 weeks. The animals were housed in groups in standard cages and conditions (23 ± 2°C, 50–60% relative humidity, 12-hr dark/light cycle) with free access to food and water. Mice received a single dose of test compound by oral gavage at a dosing volume of 10 mL/kg body weight (BW). Mice treated with corn oil vehicle (10 mL/kg BW) served as controls. For each congener, five different doses were administered, ranging from 0.5–100 μg/kg BW (TCDD) to 5,000–500,000 µg/kg BW (PCB-153). Detailed information on doses is provided in Supplemental Material, Table S1 (http://dx.doi.org/10.1289/ehp.1206336). On day 3 after dosing, animals were euthanized by CO2/O2 asphyxiation, and blood was immediately collected from the abdominal aorta. The liver, thymus, spleen, and adipose tissue were removed, weighed (liver, thymus, and spleen), snap frozen, and stored at –80°C. All animal treatments were performed with permission of the Animal Ethical Committee (DEC Utrecht) and performed according to the [Law on Animal Experiments (1977)]. Animals were treated humanely and with regard for alleviation of suffering.
EROD activity. We determined hepatic CYP1A1 activity using ethoxyresorufin-O-deethylase (EROD) activity in hepatic microsomal fractions as described by [Schulz et al. (2012)].
(§2) Data analysis. We obtained concentration–response curves using a sigmoidal dose–response nonlinear regression curve fit with variable slope (GraphPad Prism 6.01; GraphPad Software Inc., San Diego, CA, USA):
(§3) In this Hill equation, y is the dependent variable (EROD activity or fold induction of mRNA levels), x the independent variable (administered or systemic dose), E0 is the estimated background response level, Emax is the maximum response, b is the estimated median effective concentration (EC50), and n is the shaping parameter of the Hill curve.
(§4) Using the congener-specific BMR20TCDD concentration, REPs were calculated relatively to TCDD: […]

Cyp1a1 mRNA in liver = test: Cyp1a1 gene expression in liver (real-time PCR); settings: for BMR20TCDD Liver Cyp1a1 mRNA: 3 days after single oral dose; for REP Liver Cyp1a1 mRNA: relative to TCDD
Experimental: as §1
(§5) RNA isolation and quantitative real-time polymerase chain reaction (PCR). Total RNA was isolated from liver and PBLs using a QIAGEN RNeasy kit (QIAGEN). Purity and concentration of the isolated RNA was determined by measuring the absorbance ratio at 260/280 nm and 230/260 nm with a Nanodrop 2000 spectrophotometer (Thermo Scientific, Asheville, NC, USA). RNA was reverse transcribed to complementary DNA (cDNA) using the iScript cDNA synthesis Kit (Bio-Rad, Veenendaal, the Netherlands). Quantitative real-time PCR analyses were performed using the iQ Real-Time PCR Detection System with SYBR green (Bio-Rad). Amplification reactions were set up with […] containing 12.5 μL iQ SYBR Green Supermix (Bio-rad), 0.5 μL distilled H2O, 1 μL (10 μM) forward primer, 1 μL (10 μM) reverse primer, and 10 μL first strand cDNA (10X diluted). Primer sequences were as follows: Cyp1a1: forward-5´-GGTTAACCATGACCGGGAACT-3´ and reverse-5´-TGCCCAAACCAAAGAGAGTGA-3´ ([Schulz et al. 2012]); Cyp1a2: forward-5´-ACATTCCCAAGGAGCGCTGTATCT-3´ and reverse-5´-GTCGATGGCCGAGTTGTTATTGGT-3´ ([Flaveny et al. 2010]); Cyp1b1: forward-5´-GTGGCTGCTCATCCTCTTTACC-3´ and reverse-5´-CCCACAACCTGGTCCAACTC-3´ ([Berge et al. 2004]); β-actin: forward-5´-ATGCTCCCCGGGCTGTAT-3´ and reverse-5´-CATAGGAGTCCTTCTGACCCATTC-3´ ([Schulz et al. 2012]). All primers were run through the National Center for Biotechnology Information Primer-BLAST database (http://www.ncbi.nlm.nih.gov/tools/primer-blast/) to confirm specificity and validate for optimal annealing temperature (60°C for all primers) and efficiency. […] The following program was used for denaturation and amplification of cDNA: 3 min at 95°C, followed by 40 cycles of 15 sec at 95°C and 45 sec at 60°C. Gene expression for each sample was expressed as threshold cycle (Ct), normalized to the reference gene β-actin (ΔCt). We calculated fold induction relative to the control group.
as §2, §3, §4

Cyp1a1 mRNA in PBLs = test: Cyp1a1 gene expression in peripheral blood lymphocytes; settings: for BMR20TCDD PBLs Cyp1a1 mRNA: 3 days after single oral dose; for REP PBLs Cyp1a1 mRNA: relative to TCDD
Experimental: as §1
Plasma and PBL isolation. Blood from two mice was pooled (total volume of approximately 1.4 mL); plasma and PBLs were then isolated using Ficoll Paque gradient (GE Healthcare Europe, Diegem, Belgium). Plasma samples were stored at –80°C until compound analysis. Isolated lymphocytes were lysed with RLT buffer (QIAGEN, Venlo, the Netherlands) as described in the QIAGEN RNAeasy kit protocol and stored at –80°C until use.
as §5
Data analysis. We obtained concentration–response curves using a sigmoidal dose–response nonlinear regression curve fit with variable slope (GraphPad Prism 6.01; GraphPad Software Inc., San Diego, CA, USA): […]

[2] = dose metric Adm dose (µg/kg BW)
[3] = dose metric Syst adipose (ng/g lipid)
[4] = dose metric Syst liver (ng/g lipid)
[5] = dose metric Syst liver (ng/g liver)
[6] = dose metric Syst plasma (ng/g lipid)

Row | SMILES | BMR20TCDD Liver EROD activity ([1]; dose metric Adm dose) | BMR20TCDD Liver EROD activity ([1]; dose metric Syst adipose) | BMR20TCDD Liver EROD activity ([1]; dose metric Syst plasma) | REP Liver EROD activity [1, 2] | REP Liver EROD activity [1, 3] | REP Liver EROD activity [1, 4] | REP Liver EROD activity [1, 5] | REP Liver EROD activity [1, 6] | BMR20TCDD Liver Cyp1a1 mRNA (Cyp1a1 mRNA in liver; dose metric Adm dose) | BMR20TCDD Liver Cyp1a1 mRNA (Cyp1a1 mRNA in liver; dose metric Syst plasma) | REP Liver Cyp1a1 mRNA (Cyp1a1 mRNA in liver; [2]) | REP Liver Cyp1a1 mRNA (Cyp1a1 mRNA in liver; [4]) | REP Liver Cyp1a1 mRNA (Cyp1a1 mRNA in liver; [5]) | REP Liver Cyp1a1 mRNA (Cyp1a1 mRNA in liver; [6]) | BMR20TCDD Liver Cyp1a1 mRNA (Cyp1a1 mRNA in liver; dose metric Syst adipose) | REP Liver Cyp1a1 mRNA (Cyp1a1 mRNA in liver; [3]) | BMR20TCDD PBLs Cyp1a1 mRNA (Cyp1a1 mRNA in PBLs; dose metric Adm dose) | BMR20TCDD PBLs Cyp1a1 mRNA (Cyp1a1 mRNA in PBLs; dose metric Syst plasma) | REP PBLs Cyp1a1 mRNA (Cyp1a1 mRNA in PBLs; [2]) | REP PBLs Cyp1a1 mRNA (Cyp1a1 mRNA in PBLs; [6])
1 | Clc1ccc(-c2cc(Cl)c(Cl)cc2Cl)cc1Cl [PCB-118, 2,3´,4,4´,5-pentachlorobiphenyl] | 55,259 µg/kg BW | 359,114 ng/g lipid | 311,118 ng/g lipid | 0.000005 | 0.000003 | 0.00006 | 0.00006 | 0.000004 | 139,631 µg/kg BW | 803,766 ng/g lipid | 0.000005 | 0.00005 | 0.00007 | 0.000003 | – | – | – | – | – | –
2 | Clc1ccc(-c2cc(Cl)c(Cl)c(Cl)c2)cc1Cl [PCB-126, 3,3´,4,4´,5-pentachlorobiphenyl] | 29.3 µg/kg BW | 72.7 ng/g lipid | 72.3 ng/g lipid | 0.01 | 0.02 | 0.003 | 0.004 | 0.02 | 558 µg/kg BW | – | 0.001 | 0.001 | 0.001 | 0.008 | 315 ng/g lipid | 0.008 | 603 µg/kg BW | 847 ng/g lipid | 0.04 | 0.06
3 | Clc1ccc(-c2cc(Cl)c(Cl)c(Cl)c2Cl)cc1Cl [PCB-156, 2,3,3´,4,4´,5-hexachlorobiphenyl] | 15,664 µg/kg BW | 82,483 ng/g lipid | 98,188 ng/g lipid | 0.00002 | 0.00001 | 0.0002 | 0.0002 | 0.00001 | 44,305 µg/kg BW | 303,586 ng/g lipid | 0.00001 | 0.0001 | 0.0001 | 0.000009 | 180,515 ng/g lipid | 0.00001 | 747,734 µg/kg BW | 2,359,081 ng/g lipid | 0.00003 | 0.00002
4 | Clc1cc2c(cc1Cl)Oc1c(cc(Cl)c(Cl)c1Cl)O2 [PeCDD, 1,2,3,7,8-pentachlorodibenzodioxin] | 0.54 µg/kg BW | 1.25 ng/g lipid | 2.31 ng/g lipid | 0.5 | 1 | 0.3 | 0.3 | 0.6 | 1.25 µg/kg BW | 3.94 ng/g lipid | 0.5 | 0.4 | 0.4 | 0.7 | 2.36 ng/g lipid | 1 | 33.7 µg/kg BW | 34.0 ng/g lipid | 0.7 | 1.5
5 | Clc1cc2c(cc1Cl)Oc1cc(Cl)c(Cl)cc1O2 [TCDD, 2,3,7,8-tetrachlorodibenzodioxin, reference compound] | 0.29 µg/kg BW | 1.23 ng/g lipid | 1.38 ng/g lipid | 1 | 1 | 1 | 1 | 1 | 0.64 µg/kg BW | 2.66 ng/g lipid | 1 | 1 | 1 | 1 | 2.50 ng/g lipid | 1 | 22.4 µg/kg BW | 50.6 ng/g lipid | 1 | 1
